Data as given in patent US20200164038A1, “MODIFIED NUCLEOSIDE, NUCLEOTIDE, AND NUCLEIC ACID COMPOSITIONS” (ModernaTX, Inc., priority 2011, published 2020).

Key:
[1] = test system: Human primary foreskin fibroblasts (BJ fibroblasts); test: Innate immune response transcripts in BJ fibroblasts, single transfection (qPCR); type: cell-based; conditions: 250 ng, 18 hours
Text: Control samples of poly I:C.

TNF-alpha = test: Chemical modification ranges, modified RNA transfected in PBMC, TNF-alpha ELISA; type: cell-based, human
Procedure: (§1) The supernatant was harvested and run by ELISA 22 hours after transfection to determine the protein expression.

[2] = test system: peripheral blood mononuclear cells (PBMC); test: In vitro PBMC study, percent modification: IFN-alpha and TNF-alpha by ELISA, PC ratio; type: cell-based, human
Procedure: as §1

IFN-alpha = test: Chemical modification ranges, modified RNA transfected in PBMC, IFN-alpha ELISA; type: cell-based, human
Procedure: 960 ng of G-CSF mRNA modified with 5-methylcytosine (5mC) and pseudouridine (pseudoU) or unmodified G-CSF mRNA was transfected with 0.8 uL of Lipofectamine 2000 into peripheral blood mononuclear cells (PBMC) from three normal blood donors (D1, D2, D3). […] The supernatant was harvested and run by ELISA 22 hours after transfection to determine the protein expression. The expression of IFN-alpha and TNF-alpha may be a secondary effect from the transfection of the G-CSF mRNA.

[3] = Split dose study IM, serum human EPO, product per unit drug and dose splitting factor; type: in vivo, mice
Procedure: The dosing vehicle (F. buffer) consisted of 150 mM NaCl, 2 mM CaCl2, 2 mM Na^+-phosphate (1.4 mM monobasic sodium phosphate; 0.6 mM dibasic sodium phosphate), and 0.5 mM EDTA, pH 6.5. The pH was adjusted using sodium hydroxide and the final solution was filter sterilized.
Animals (n=5) were injected IM (intramuscular) for the single unit dose of 100 ug. For multi-dosing, two schedules were used, 3 doses of 100 ug and 6 doses of 100 ug. For the split dosing scheme, two schedules were used, 3 doses at 33.3 ug and 6 doses of 16.5 ug mmRNA. Control dosing involved use of buffer only at 6 doses. […] Blood and muscle tissue were evaluated 13 hrs post injection.
Human EPO protein was measured in mouse serum 13 h post I.M. single, multi- or split dosing of the EPO mmRNA in buffer. Seven groups of mice (n=5 mice per group) were treated and evaluated.
The splitting factor is defined as the product per unit drug divided by the single dose product per unit drug (PUD) For example for treatment group 2 the value 0.28 or product (EPO) per unit drug (mmRNA) is divided by the single dose product per unit drug of 0.14. The result is 2. Likewise, for treatment group 4, the value 1.1 or product (EPO) per unit drug (mmRNA) is divided by the single dose product per unit drug of 0.14. The result is 7.9. Consequently, the dose splitting factor (DSF) may be used as an indicator of the efficacy of a split dose regimen. For any single administration of a total daily dose, the DSF should be equal to 1. Therefore any DSF greater than this value in a split dose regimen is an indication of increased efficacy.

HEK293 cells = test: In vitro expression of VEGF modified mRNA (ELISA); type: cell-based
[4] = Stability of modified RNA on storage (gel electrophoresis); type: physicochemical
Procedure: Stability experiments were conducted to obtain a better understanding of storage conditions to retain the integrity of modified RNA. […] 40° C. 37° C. 25° C. 4° C. or −20° C. After the mRNA had been stored for 0 hours, 2 hours, 6 hours, 24 hours, 48 hours, 5 days and 14 days, the mRNA was analyzed by gel electrophoresis using a Bio-Rad EXPERION™ system. The modified, unmodified and lipoplexed G-CSF mRNA was also stored in RNASTABLE® (Biomatrica, Inc. San Diego, Calif.) at 40° C. or water at −80° C. or 40° C. for 35 days before being analyzed by gel electrophoresis.
mRNA samples stored at 4° C. 25° C. and 37° C. were stored in 1×TE buffer or the formulation buffer (150 mM sodium chloride, 2 mM calcium chloride, 2 mM phosphate, 0.5 mM EDTA at a pH of 6.5). The mRNA stored at 4° C. was stable to at least 60 days in both the TE and formulation buffer. At 25° C. the mRNA in formulation buffer was stable out to 14 days and the TE buffer was stable out to at least 6 days. Storage of mRNA in the formulation buffer at 37° C. was stable to 6 days compared to the TE buffer which was stable only until 4 days.

[5] = group 1: 1 × 100 ug, total dose 100 ug
[6] = group 2: 3 × 100 ug, total dose 300 ug
[7] = group 3: 3 × 33.3 ug, total dose 600 ug
[8] = group 4: 3 × 33.3 ug, total dose 100 ug
[9] = group 5: 6 × 16.5 ug, total dose 100 ug

## poly I:C [P(I)P(C)]
[1]
  AIM2 transcript level: 0.100 fold-induction relative to HPRT
  IFIT-1 transcript level: 71.914 fold-induction relative to HPRT
  IFNa transcript level: 0.063 fold-induction relative to HPRT
  IFNb transcript level: 1.523 fold-induction relative to HPRT
  IL6 transcript level: 2.8 fold-induction relative to HPRT
  OAS-1 transcript level: 8.628 fold-induction relative to HPRT
  PKR transcript level: 10.326 fold-induction relative to HPRT
  RIG-I transcript level: 30.0 fold-induction relative to HPRT
  TNFa transcript level: 0.264 fold-induction relative to HPRT
TNF-alpha; PBMC donor D1
  TNF-alpha Expression: 61.2 pg/mL
TNF-alpha; PBMC donor D2
  TNF-alpha Expression: 4.4 pg/mL
TNF-alpha; PBMC donor D3
  TNF-alpha Expression: 69.1 pg/mL
[2]; donor D1, 22 hours
  IFN-alpha Expression: 130.8 pg/mL
  TNF-alpha Expression: 765.8 pg/mL
[2]; donor D2, 22 hours
  IFN-alpha Expression: 297.1 pg/mL
  TNF-alpha Expression: 2362.7 pg/mL
[2]; donor D3, 22 hours
  IFN-alpha Expression: 585.2 pg/mL
  TNF-alpha Expression: 420.4 pg/mL
IFN-alpha; PBMC donor D1
  IFN-alpha Expression: 1498.1 pg/mL
IFN-alpha; PBMC donor D2
  IFN-alpha Expression: 216.8 pg/mL
IFN-alpha; PBMC donor D3
  IFN-alpha Expression: 238.8 pg/mL

B1: Human EPO mmRNA (nucleic acid, listed as Homo sapiens)
sense: GGGAAAUAAGAGAGAAAAGAAGAGUAAGAAGAAAUAUAAGAGCCACCAUGGGAGUGCACGAGUGUCCCGCGUGGUUGUGGUUGCUGCUGUCGCUCUUGAGCCUCCCACUGGGACUGCCUGUGCUGGGGGCACCACCCAGAUUGAUCUGCGACUCACGGGUACUUGAGAGGUACCUUCUUGAAGCCAAAGAAGCCGAAAACAUCACAACCGGAUGCGCCGAGCACUGCUCCCUCAAUGAGAACAUUACUGUACCGGAUACAAAGGUCAAUUUCUAUGCAUGGAAGAGAAUGGAAGUAGGACAGCAGGCCGUCGAAGUGUGGCAGGGGCUCGCGCUUUUGUCGGAGGCGGUGUUGCGGGGUCAGGCCCUCCUCGUCAACUCAUCACAGCCGUGGGAGCCCCUCCAACUUCAUGUCGAUAAAGCGGUGUCGGGGCUCCGCAGCUUGACGACGUUGCUUCGGGCUCUGGGCGCACAAAAGGAGGCUAUUUCGCCGCCUGACGCGGCCUCCGCGGCACCCCUCCGAACGAUCACCGCGGACACGUUUAGGAAGCUUUUUAGAGUGUACAGCAAUUUCCUCCGCGGAAAGCUGAAAUUGUAUACUGGUGAAGCGUGUAGGACAGGGGAUCGCUGAUAAGCUGCCUUCUGCGGGGCUUGCCUUCUGGCCAUGCCCUUCUUCUCUCCCUUGCACCUGUACCUCUUGGUCUUUGAAUAAAGCCUGAGUAGGAAG
modifications: 5' Cap1, polyA tail ~160 nt
[3]; [5]
  Dose Splitting Factor: 1
  Polypeptide per unit drug: 0.14 pmol/µg
[3]; [6]
  Dose Splitting Factor: 2
  Polypeptide per unit drug: 0.28 pmol/µg
[3]; [7]
  Dose Splitting Factor: 3.3
  Polypeptide per unit drug: 0.46 pmol/µg
[3]; [8]
  Dose Splitting Factor: 7.9
  Polypeptide per unit drug: 1.1 pmol/µg
[3]; [9]
  Dose Splitting Factor: 9.3
  Polypeptide per unit drug: 1.3 pmol/µg

B2: VEGF-A: modified mRNA VEGF-A SEQ ID NO 19, Cap1, fully modified with 5-methylcytosine and pseudouridine, complexed with Lipofectamine2000 (nucleic acid, listed as Homo sapiens)
chain: GGGAAAUAAGAGAGAAAAGAAGAGUAAGAAGAAAUAUAAGAGCCACCAUGAACUUUCUCUUGUCAUGGGUGCACUGGAGCCUUGCGCUGCUGCUGUAUCUUCAUCACGCUAAGUGGAGCCAGGCCGCACCCAUGGCGGAGGGUGGCGGACAGAAUCACCACGAAGUAGUCAAAUUCAUGGACGUGUACCAGAGGUCGUAUUGCCAUCCGAUUGAAACUCUUGUGGAUAUCUUUCAAGAAUACCCCGAUGAAAUCGAGUACAUUUUCAAACCGUCGUGUGUCCCUCUCAUGAGGUGCGGGGGAUGCUGCAAUGAUGAAGGGUUGGAGUGUGUCCCCACGGAGGAGUCGAAUAUCACAAUGCAAAUCAUGCGCAUCAAACCACAUCAGGGUCAGCAUAUUGGAGAGAUGUCCUUUCUCCAGCACAACAAAUGUGAGUGUAGACCGAAGAAGGACCGAGCCCGACAGGAAAACCCAUGCGGACCGUGCUCCGAGCGGCGCAAACACUUGUUCGUACAAGACCCCCAGACAUGCAAGUGCUCAUGUAAGAAUACCGAUUCGCGGUGUAAGGCGAGACAGCUGGAAUUGAACGAGCGCACGUGUAGGUGCGACAAGCCUAGACGGUGAGCUGCCUUCUGCGGGGCUUGCCUUCUGGCCAUGCCCUUCUUCUCUCCCUUGCACCUGUACCUCUUGGUCUUUGAAUAAAGCCUGAGUAGGAAG
modifications: Cap1, polyA tail, 5mC/pseudoU, Lipofectamine2000 complex
HEK293 cells; 2 pg transfected
  Protein: 0 pg/mL
HEK293 cells; 10 pg transfected
  Protein: 0 pg/mL
HEK293 cells; 39 pg transfected
  Protein: 0 pg/mL
HEK293 cells; 610 fg transfected
  Protein: 0 pg/mL

B3: G-CSF unmodified: unmodified G-CSF mRNA SEQ ID NO 6, Cap1 (nucleic acid, listed as Homo sapiens)
chain: GGGAAAUAAGAGAGAAAAGAAGAGUAAGAAGAAAUAUAAGAGCCACCAUGGCCGGUCCCGCGACCCAAAGCCCCAUGAAACUUAUGGCCCUGCAGUUGCUGCUUUGGCACUCGGCCCUCUGGACAGUCCAAGAAGCGACUCCUCUCGGACCUGCCUCAUCGUUGCCGCAGUCAUUCCUUUUGAAGUGUCUGGAGCAGGUGCGAAAGAUUCAGGGCGAUGGAGCCGCACUCCAAGAGAAGCUCUGCGCGACAUACAAACUUUGCCAUCCCGAGGAGCUCGUACUGCUCGGGCACAGCUUGGGGAUUCCCUGGGCUCCUCUCUCGUCCUGUCCGUCGCAGGCUUUGCAGUUGGCAGGGUGCCUUUCCCAGCUCCACUCCGGUUUGUUCUUGUAUCAGGGACUGCUGCAAGCCCUUGAGGGAAUCUCGCCAGAAUUGGGCCCGACGCUGGACACGUUGCAGCUCGACGUGGCGGAUUUCGCAACAACCAUCUGGCAGCAGAUGGAGGAACUGGGGAUGGCACCCGCGCUGCAGCCCACGCAGGGGGCAAUGCCGGCCUUUGCGUCCGCGUUUCAGCGCAGGGCGGGUGGAGUCCUCGUAGCGAGCCACCUUCAAUCAUUUUUGGAAGUCUCGUACCGGGUGCUGAGACAUCUUGCGCAGCCGUGAAGCGCUGCCUUCUGCGGGGCUUGCCUUCUGGCCAUGCCCUUCUUCUCUCCCUUGCACCUGUACCUCUUGGUCUUUGAAUAAAGCCUGAGUAGGAAG
modifications: Cap1
[4]; stored at 25° C.
  stable out to: 48 h
[4]; stored at 37° C.
  stable out to: 6 h
[4]; stored at 50° C.
  stable out to: 2 h
